Assay results published in ChEMBL document CHEMBL3044863, “Optimization of biological (Phasmarhabditis hermaphrodita) and chemical (iron phosphate and metaldehyde) slug control” (Crop Prot, 2009).
Activity calls are given as the source filed them. The rule behind the calls is not given here.

Legend:
Type in all cases: functional, organism-based
[1] = tested on: Arion subfuscus; experiment: Molluscicidal activity against Arion subfuscus in Chinese cabbage at 0.8 g/m2 after 7 to 14 days by miniplot trial analysis in presence of 65.8 mm rainfall
[2] = tested on: Deroceras panormitanum; experiment: Molluscicidal activity against Deroceras panormitanum assessed as reduction of slug number at 0.8 g/m2 after 42 days
[3] = tested on: Deroceras reticulatum; experiment: Molluscicidal activity against Deroceras reticulatum in Chinese cabbage at 0.8 g/m2 after 7 to 42 days
[4] = tested on: Deroceras reticulatum; experiment: Molluscicidal activity against Deroceras reticulatum in Chinese cabbage at 0.8 g/m2 after 21 to 42 days by miniplot trial analysis in presence of 135 mm rainfall
[5] = tested on: Deroceras reticulatum; experiment: Molluscicidal activity against Deroceras reticulatum in Chinese cabbage at 0.8 g/m2 after 7 to 14 days by miniplot trial analysis in presence of 135 mm rainfall
[6] = tested on: Arion subfuscus; experiment: Molluscicidal activity against Arion subfuscus in Chinese cabbage at 0.8 g/m2 after 7 to 14 days by miniplot trial analysis in presence of 135 mm rainfall
[7] = tested on: Deroceras reticulatum; experiment: Molluscicidal activity against Deroceras reticulatum in Chinese cabbage at 0.8 g/m2 after 7 to 28 days by miniplot trial analysis in presence of 65.8 mm rainfall
[8] = tested on: Arion subfuscus; experiment: Molluscicidal activity against Arion subfuscus in Chinese cabbage at 0.8 g/m2 after 7 to 42 days by miniplot trial analysis in presence of 17 mm rainfall
[9] = tested on: Deroceras reticulatum; experiment: Molluscicidal activity against Deroceras reticulatum assessed as reduction of slug number at 0.8 g/m2 after 42 days
[10] = tested on: Deroceras reticulatum; experiment: Molluscicidal activity against Deroceras reticulatum in Chinese cabbage at 0.8 g/m2 after 7 to 42 days by miniplot trial analysis in presence of 17 mm rainfall
[11] = tested on: Arion subfuscus; experiment: Molluscicidal activity against Arion subfuscus in Chinese cabbage at 0.8 g/m2 after 7 days by miniplot trial analysis in presence of 135 mm rainfall
[12] = tested on: Arion subfuscus; experiment: Molluscicidal activity against Arion subfuscus in Chinese cabbage at 0.8 g/m2 after 21 to 28 days by miniplot trial analysis in presence of 65.8 mm rainfall
[13] = tested on: Arion subfuscus; experiment: Molluscicidal activity against Arion subfuscus in Chinese cabbage at 0.8 g/m2 after 21 to 42 days by miniplot trial analysis in presence of 135 mm rainfall
[14] = tested on: Arion subfuscus; experiment: Molluscicidal activity against Arion subfuscus in Chinese cabbage at 0.8 g/m2 after 7 to 42 days
[15] = tested on: Arion subfuscus; experiment: Molluscicidal activity against Arion subfuscus in Chinese cabbage at 0.8 g/m2 after 7 to 42 days by miniplot trial analysis in presence of 65.4 mm rainfall
[16] = tested on: Deroceras reticulatum; experiment: Molluscicidal activity against Deroceras reticulatum in Chinese cabbage at 0.8 g/m2 after 7 to 42 days by miniplot trial analysis in presence of 65.4 mm rainfall
[17] = tested on: Deroceras reticulatum; experiment: Molluscicidal activity against Deroceras reticulatum in Chinese cabbage at 0.8 g/m2 after 7 days by miniplot trial analysis in presence of 135 mm rainfall
[18] = tested on: Arion subfuscus; experiment: Molluscicidal activity against Arion subfuscus assessed as reduction of slug number at 0.8 g/m2 after 42 days
[19] = tested on: Arion subfuscus; experiment: Molluscicidal activity against Arion subfuscus in Chinese cabbage at 5 g/m2 after 21 to 28 days by miniplot trial analysis in presence of 65.8 mm rainfall
[20] = tested on: Arion subfuscus; experiment: Molluscicidal activity against Arion subfuscus in Chinese cabbage at 5 g/m2 after 7 to 14 days by miniplot trial analysis in presence of 65.8 mm rainfall
[21] = tested on: Deroceras reticulatum; experiment: Molluscicidal activity against Deroceras reticulatum in Chinese cabbage at 5 g/m2 after 7 to 42 days by miniplot trial analysis in presence of 17 mm rainfall
[22] = tested on: Arion subfuscus; experiment: Molluscicidal activity against Arion subfuscus in Chinese cabbage at 5 g/m2 after 7 to 42 days by miniplot trial analysis in presence of 17 mm rainfall
[23] = tested on: Deroceras reticulatum; experiment: Molluscicidal activity against Deroceras reticulatum in Chinese cabbage at 5 g/m2 after 7 to 28 days by miniplot trial analysis in presence of 65.8 mm rainfall

CC1OC(C)OC(C)OC(C)O1 (stereo not drawn)
Activity [1]: Active | Activity [2]: inactive | Activity [3]: Active | Activity [4]: Active | Activity [5]: Active | Activity [6]: Active | Activity [7]: Active | Activity [8]: Active | Activity [9]: inactive | Activity [10]: Active | Activity [11]: Active | Activity [12]: inactive | Activity [13]: Active | Activity [14]: Active | Activity [15]: Active | Activity [16]: Active | Activity [17]: Active | Activity [18]: inactive

IRON PHOSPHATE
Activity [19]: inactive | Activity [20]: Active | Activity [21]: Active | Activity [22]: Active | Activity [23]: Active
